Reference: US20230257398A1, “PYRIMIDINE-BASED TRICYCLIC COMPOUND AND USE THEREOF” (Chia Tai Tianqing Pharmaceutical Group Co., Ltd., priority 2020, published 2023)

Target: T1, sGC (Homo sapiens, UniProt Q02108+Q02153)
T1 construct: Preparation of LNCap Cells; endogenous in cells; host or cells: LNCaP cells (14th generation), no transfection described
T1 sequence (Q02153 1-619): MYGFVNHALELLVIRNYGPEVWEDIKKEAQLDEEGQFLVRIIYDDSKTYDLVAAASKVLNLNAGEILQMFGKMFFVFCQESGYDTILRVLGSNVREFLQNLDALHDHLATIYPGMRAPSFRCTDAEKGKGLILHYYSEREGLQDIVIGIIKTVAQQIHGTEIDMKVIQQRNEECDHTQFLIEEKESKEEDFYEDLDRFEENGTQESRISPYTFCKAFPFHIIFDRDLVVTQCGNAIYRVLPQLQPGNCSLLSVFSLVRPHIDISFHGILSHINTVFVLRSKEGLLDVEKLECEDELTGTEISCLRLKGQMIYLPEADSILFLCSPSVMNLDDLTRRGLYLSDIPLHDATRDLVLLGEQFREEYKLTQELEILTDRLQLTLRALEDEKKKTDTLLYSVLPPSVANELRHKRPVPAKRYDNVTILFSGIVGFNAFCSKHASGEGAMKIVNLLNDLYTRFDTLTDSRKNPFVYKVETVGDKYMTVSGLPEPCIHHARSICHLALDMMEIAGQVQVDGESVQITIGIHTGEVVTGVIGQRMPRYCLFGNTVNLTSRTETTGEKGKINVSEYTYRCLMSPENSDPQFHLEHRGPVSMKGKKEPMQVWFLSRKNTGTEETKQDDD
T1 sequence (Q02108 1-690): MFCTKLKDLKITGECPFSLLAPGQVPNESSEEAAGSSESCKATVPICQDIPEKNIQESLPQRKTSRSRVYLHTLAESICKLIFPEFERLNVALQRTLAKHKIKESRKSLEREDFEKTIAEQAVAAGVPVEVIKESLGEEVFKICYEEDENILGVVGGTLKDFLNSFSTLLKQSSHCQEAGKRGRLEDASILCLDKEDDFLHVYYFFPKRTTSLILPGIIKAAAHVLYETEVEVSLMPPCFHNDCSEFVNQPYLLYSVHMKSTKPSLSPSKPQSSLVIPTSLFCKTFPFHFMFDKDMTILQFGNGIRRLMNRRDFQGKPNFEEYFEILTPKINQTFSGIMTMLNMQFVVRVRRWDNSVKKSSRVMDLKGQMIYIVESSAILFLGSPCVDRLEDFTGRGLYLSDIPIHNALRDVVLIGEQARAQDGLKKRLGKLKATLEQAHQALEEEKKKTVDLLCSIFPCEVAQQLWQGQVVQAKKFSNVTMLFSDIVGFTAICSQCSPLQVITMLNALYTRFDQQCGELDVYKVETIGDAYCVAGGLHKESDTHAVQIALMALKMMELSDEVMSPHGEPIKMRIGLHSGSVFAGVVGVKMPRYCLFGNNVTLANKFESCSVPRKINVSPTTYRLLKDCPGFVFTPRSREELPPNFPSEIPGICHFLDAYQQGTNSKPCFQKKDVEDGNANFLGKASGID
Experiment: lnCap cell-based cGMP expression assay (stimulating activity for sGC)
Details: with DETA-NO, 37° C. 30 min, HTRF cGMP
Procedure: I. lnCap Cell-Based cGMP Expression Assay
1) Preparation of Solutions
10% BSA (Bovine Serum Albumin)
10 g of BSA was dissolved in 100 mL of double distilled water (ddH2O) to give 10% BSA.
5 mM DETA (Diethylenetriamine)-NO
10 mg of DETA-NO was weighed out and dissolved in 12.2 mL of double distilled water (ddH2O) to give 5 mM DETA-NO, which was aliquoted and cryopreserved in a freezer at −20° C.
a) To 1 mL of a lysis buffer was added 50 μL of cGMP-D2 (D2-labeled cyclic guanosine monophosphate), and the mixture was well mixed.
b) To 1 mL of a lysis buffer was added 50 μL of anti-cGMP cryptate (Eu^3+ cryptate-labeled anti-cyclic guanosine monophosphate antibody), and the mixture was well mixed.
(1) The compounds were diluted to 5 mM with DMSO. 10 μL of each of the compounds was transferred to a shallow well plate for Echo.
(2) The compounds were gradiently diluted with Echo. Each of the compounds was diluted to obtain 10 concentration gradients, and 50 nL of each of the concentration gradients was added to a 384 microwell plate.
3) Preparation of LNCap Cells
(1) LNCap medium: RPMI1640+10% fetal bovine serum+1% […].
(2) Phosphate buffered saline, pancreatin and the medium used in the process of cell passaging were pre-heated in a water bath at 37° C.
(3) The cells (the 14th generation) were taken out of the 37° C., 5% CO2 incubator, and the old medium was pipetted off the culture flask.
(4) 5 mL of phosphate buffered saline was pipetted into the culture flask to rinse the cells, and then the liquid was discarded.
(5) 3 mL of pancreatin was pipetted into the culture flask. After the culture flask was shaken, the liquid was discarded, and the culture flask was placed in the incubator.
(6) After about 2 min the culture flask was taken out. […] The cell suspension was transferred to a 50 mL centrifuge tube.
(7) 0.7 mL of the cell suspension was pipetted into a counter cup and the cells were counted on a ViCell XR. The remaining cells were centrifuged at 1000 rpm for 5 min, and the supernatant was removed.
(8) The cells were washed by adding 10 mL of the washing buffer and centrifuged at 1000 rpm for 5 min, and the supernatant was removed.
(9) The assay buffer was added to adjust the cell concentration to 1.25×10^6/mL. The cells were added to the microwell plate at 8 μL/well.
4) Formulation and Addition of DETA-NO
(1) 10 μL of 5 mM DETA-NO was added to 1240 μL of the assay buffer and to 1657 μL of the assay buffer to give 40 μM DETA-NO and 30 μM DETA-NO, respectively.
(2) DETA-NO was transferred to the 384 microwell plate at 2 μL/well using Bravo.
(3) The mixtures were centrifuged at 1500 rpm for 5 min. The microwell plate was incubated at 37° C. for 30 min.
5) Preparation of cGMP Standard Curve
(1) 1 mM of the cGMP stock solution was diluted to 10 μM with the assay buffer. Then 4-fold gradient dilution was performed to obtain 11 concentration gradients.
(2) The cGMP dilutions were added to the microwell plate at 10 μL/well.
6) Addition of Detection Reagents and Plate Reading
(1) cGMP-D2 was transferred to the 384 microwell plate at 5 μL/well using Bravo. The mixtures were centrifuged at 1500 rpm for 1 min.
(2) The anti-cGMP cryptate was transferred to the 384 microwell plate at 5 μL/well using Bravo. The mixtures were centrifuged at 1500 rpm for 1 min.
(3) The plate was incubated at room temperature for 1 h.
(4) 665/615 was read using envision.
(1) cGMP standard curve: a standard curve was generated using Graphpad prism based on the cGMP concentrations and 665/615 ratios.
(2) Conversion of HTRF (homogeneous time-resolved fluorescence) ratios (665/615) to cGMP concentrations: in Graphpad prism, the HTRF ratios (665/615) were copied into the ratio column of the cGMP standard curve, and the “Log inhibitor vs response-variable slope” analysis was run with “interpolate” selected to convert the HTRF ratios (665/615) to cGMP concentrations. […]

MEC: minimum effective concentration to stimulate cGMP production (three times greater than the basal value) in lnCap cells	SMILES
402.7 nM	CC12CCC(=O)Nc3nc(-c4nn(CCC(F)(F)C(F)(F)F)c5ncc(F)cc45)nc(c31)NC(=O)C2 (stereo not shown) [Compound 014]
142.79 nM	O=C1Cn2c(=O)[nH]c3nc(-c4nn(Cc5ccccc5F)c5ncc(F)cc45)nc(c32)N1 [Compound 004]
88.37 nM	CC12CCC(=O)Nc3nc(-c4nn(Cc5ccccc5F)c5ncc(F)cc45)nc(c31)NC(=O)C2 (stereo not shown) [Compound 008]
13.12 nM	CC12CCC(=O)Nc3nc(-c4nn(CCC(F)(F)C(F)(F)F)c5ncc(F)cc45)nc(c31)NC2=O (stereo not shown) [Compound 018]
118.6 nM	CC12CC(=O)Nc3nc(-c4nn(CCC(F)(F)C(F)(F)F)c5ncc(F)cc45)nc(c31)NC(=O)C2 [Compound 012]
126.5 nM	COC(=O)NC12CCOc3nc(-c4nn(Cc5ccccc5F)c5ncc(F)cc45)nc(c31)NC2=O (stereo not shown) [Compound 049]
5.8 nM	CC12CCNc3nc(-c4nn(CCC(F)(F)C(F)(F)F)c5ncc(F)cc45)nc(c31)NC2=O (stereo not shown) [Compound 009]
31.53 nM	CC12C(=O)Nc3nc(-c4nn(Cc5ccccc5F)c5ncc(F)cc45)nc(c31)NC(=O)C2(F)F (stereo not shown) [Compound 034]
3.46 nM	CC12CC(=O)Nc3nc(-c4nn(Cc5c(F)cccc5F)c5ncc(F)cc45)nc(c31)NC2=O (stereo not shown) [Compound 017]
28.15 nM	CC12OCCNc3nc(-c4nn(Cc5ccccc5F)c5ncc(F)cc45)nc(c31)NC2=O (stereo not shown) [Compound 039]
17.51 nM	CC12CC(=O)Nc3nc(-c4nn(CCC(F)(F)C(F)(F)F)c5ncc(F)cc45)nc(c31)NC2=O (stereo not shown) [Compound 016]
2.4 nM	CC12CCC(=O)Nc3nc(-c4nn(Cc5ccccc5F)c5ncc(F)cc45)nc(c31)NC2=O (stereo not shown) [Compound 019]
4.66 nM	CC12CCNc3nc(-c4nn(Cc5c(F)cccc5F)c5ncc(F)cc45)nc(c31)NC2=O (stereo not shown) [Compound 015]
6.38 nM	CC12CC(=O)Nc3nc(-c4nn(Cc5ccccc5F)c5ncc(F)cc45)nc(c31)NC2=O (stereo not shown) [Compound 001]
84.34 nM	CN1C(=O)C2(C)CC(=O)Nc3nc(-c4nn(Cc5ccccc5F)c5ncc(F)cc45)nc1c32 (stereo not shown) [Compound 030]
21.26 nM	CC12CNC(=O)c3nc(-c4nn(Cc5ccccc5F)c5ncc(F)cc45)nc(c31)NC2=O (stereo not shown) [Compound 028]
231.7 nM	CCNC(=O)OC12CCOc3nc(-c4nn(Cc5ccccc5F)c5ncc(F)cc45)nc(c31)NC2=O (stereo not shown) [Compound 050]
26.12 nM	CC12CCNc3nc(-c4nn(CCC(F)(F)C(F)(F)F)c5ncc(F)cc45)nc(c31)NC(=O)C2 (stereo not shown) [Compound 023]
55.54 nM	CC12CC(=O)Nc3nc(-c4nn(Cc5ccccc5F)c5ncc(F)cc45)nc(c31)NC(=O)C2 [Compound 007]
24.9 nM	CC12CCNc3nc(-c4nn(Cc5c(F)cccc5F)c5ncc(F)cc45)nc(c31)NC(=O)C2 (stereo not shown) [Compound 022]
51.76 nM	CC12CC(=O)Nc3nc(-c4nn(Cc5c(F)cccc5F)c5ncc(F)cc45)nc(c31)NC(=O)C2 [Compound 010]
81.22 nM	O=c1[nH]c2nc(-c3nn(Cc4ccccc4F)c4ncc(F)cc34)nc3c2n1CCN3 [Compound 002]
178.6 nM	CC12CCC(=O)Nc3nc(-c4nn(Cc5c(F)cccc5F)c5ncc(F)cc45)nc(c31)NC(=O)C2 (stereo not shown) [Compound 011]
33.55 nM	CCOC(=O)C12CCOc3nc(-c4nn(Cc5ccccc5F)c5ncc(F)cc45)nc(c31)NC2=O (stereo not shown) [Compound 048]
7.97 nM	CC12CCNc3nc(-c4nn(Cc5ccccc5F)c5ncc(F)cc45)nc(c31)NC2=O (stereo not shown) [Compound 003]
37.34 nM	CN1C(=O)CC2(C)C(=O)Nc3nc(-c4nn(Cc5ccccc5F)c5ncc(F)cc45)nc1c32 (stereo not shown) [Compound 029]
7.59 nM	CC12CC(=O)Nc3nc(-c4nn(Cc5ccccc5F)c5ncc(F)cc45)nc(c31)NC2=O (stereo not shown) [Compound 024]
3.12 nM	CC12CCC(=O)Nc3nc(-c4nn(Cc5c(F)cccc5F)c5ncc(F)cc45)nc(c31)NC2=O (stereo not shown) [Compound 013]
